Results: patent US20050239719A1, “Methods of using and compositions comprising thalidomide for the treatment and management of pulmonary hypertension” (priority 2004, published 2005)

Legend:
[1] = tested on: patients with PH (NYHA functional class III); experiment: Clinical Study 2: 12-week placebo-controlled study in patients with PH; assay type: in vivo, human
Description: In one embodiment of the invention, thalidomide is administered in a single or divided daily doses in an amount of from about 200 to about 800 mg/day. The compound is administered to patients with PH for 12 weeks, who are subsequently evaluated for a decline in walk distance, dyspnea score, functional class, pulmonary hemodynamic response. The first study enrolls 32 patients with PH. Patients are all in modified New York Heart Association functional class III at the onset of the study. Patents are maximally treated and are stable on conventional therapy, including calcium channel antagonists and diuretics. Two thirds of patients receive 400 mg of thalidomide for four weeks followed by 800 mg of the compound for eight weeks. One third of patients receive placebo. The primary efficacy endpoint is a 6-minute walk distance. Patients receiving the compound of the invention walk an average of 70 meters farther after 12 weeks while placebo patients have a decline in walk distance. In addition, the treated patients have improvements in dyspnea score and functional class compared with placebo patients. Pulmonary hemodynamic measurements reveal decreases in pulmonary arterial pressure and pulmonary vascular resistance, and increase in cardiac output after 12 weeks of the treatment, compared with worsening of pulmonary hemodynamics in placebo patients. All these changes in treated patients are highly significant compared with placebo.

[2] = tested on: patients with PH, WHO functional class III or IV; experiment: Expanded Study: 16-week placebo-controlled study in 213 PH patients; assay type: in vivo, human
Description: On the basis of the results of the above study 2, the clinical study is expanded with additional 213 PH patients for at least 16 weeks. The study is conducted with patients with PH, WHO functional class III or IV. Two hundred thirteen patients are randomized to receive either 200 mg bid or 400 mg bid of thalidomide or placebo in a 1:1:1 ratio. The primary endpoint, a 6-minute walk distance, is evaluated at 16 weeks. The treated patients walk 36.4 meters further at 16 weeks compared to a 7.8 meter reduction in walk distance in the placebo group, for a treatment effect of 44.2 meters. Clinical worsening, defined by death, premature withdrawal from study, hospitalization for worsening of PH or institution of epoprostenol, occur in 37% of placebo-treated patients, compared with 11% of the patients treated with the compound of the invention.

[3] = 12 weeks, compared with placebo patients
[4] = after 12 weeks of treatment, compared with placebo

Question: Which results are given for `O=C1CCC(N2C(=O)c3ccccc3C2=O)C(=O)N1` (racemic) [thalidomide, 2-(2,6-dioxo-3-piperidinyl)-1H-isoindole-1,3(2H)-dione]?
Answer: dyspnea score [1, 3]: improvements; functional class [1, 3]: improvements; cardiac output [1, 4]: increase; pulmonary arterial pressure [1, 4]: decreases; pulmonary vascular resistance [1, 4]: decreases; 6-minute walk distance, average increase ([1]; after 12 weeks, 400 mg for four weeks then 800 mg for eight weeks, PH patients): 70 meters; 6-minute walk distance, increase ([2]; at 16 weeks, 200 mg bid or 400 mg bid): 36.4 meters; 6-minute walk distance, treatment effect versus placebo ([2]; at 16 weeks, treated minus placebo (7.8 meter reduction)): 44.2 meters; clinical worsening (death, premature withdrawal, hospitalization for worsening of PH or institution of epoprostenol), share of patients ([2]; treated patients, 37% in placebo-treated patients): 11%; functional class ([2]; treated versus placebo patients): improved significantly more
